{"source": "patent US20100222384A1", "about": "(priority 2009, published 2010)", "key": {"[1]": {"system": "Junin virus Candid #1 strain", "type": "cell-based", "conditions": "read-out: EC50, Junin virus inhibition"}, "[2]": {"system": "Pichinde virus CoAn 3739 strain", "type": "cell-based"}}, "data": [{"smiles": "CCCCCCCCCN1C[C@H](O)[C@@H](O)[C@H](O)[C@H]1CO", "note": "[NN-DNJ, N-Nonyl deoxynojirimycin]", "values": [{"measurement": "EC50", "setting": "[1]", "value": 60, "unit": "µM"}]}, {"smiles": "COCCCCCCCCCN1C[C@H](O)[C@@H](O)[C@H](O)[C@H]1CO", "note": "[N9-DNJ, N-(9-Methoxynonyl)deoxynojirimycin]", "values": [{"measurement": "PICV in vitro inhibition", "setting": "[2]", "value": "over 99%"}]}, {"smiles": "[N-]=[N+]=Nc1ccc(NCCCCCCN2C[C@H](O)[C@@H](O)[C@H](O)[C@H]2CO)c([N+](=O)[O-])c1", "note": "[NAP-DNJ, N-(N-{4′-azido-2′-nitrophenyl}-6-aminohexyl)deoxynojirimycin]", "values": [{"measurement": "EC50", "setting": "[1]", "value": 10, "unit": "µM"}]}, {"smiles": "CCCOCCCCCCN1C[C@H](O)[C@@H](O)[C@H](O)[C@H]1CO", "note": "[N7-O-DNJ, N-(7-Oxadecyl)deoxynojirimycin]", "values": [{"measurement": "PICV in vitro inhibition", "setting": "[2]", "value": 70, "unit": "%"}]}, {"smiles": "CCCCN1C[C@H](O)[C@@H](O)[C@H](O)[C@H]1CO", "note": "[NB-DNJ, N-Butyl deoxynojirimycin]", "values": [{"measurement": "PICV in vitro inhibition", "setting": "[2]", "value": "over 50%"}, {"measurement": "EC50", "setting": "[1]", "value": 350, "unit": "µM"}]}]}
